Laboratory results from patent US10597388B2, “Pyridazinone herbicides” (FMC CORPORATION, priority 2014, dated 2020).

Tests used:
Assay type in all cases: in vivo
[1] = system: arrowleaf sida (Sida rhombifolia); assay: Test E greenhouse herbicide test, pre- and postemergence
Outline: (§1)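 Seeds were sown in silt loam and sprayed preemergence with compound in a non-phytotoxic solvent mix containing surfactant; for postemergence, plants at 2 to 18 cm (1- to 4-leaf stage) in peat-based potting medium were sprayed with the same formulation. After 14 to 21 d in a greenhouse, injury was rated visually against controls (0–100).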

[2] = system: crabgrass, Brazilian (Brazilian crabgrass, Digitaria horizontalis); assay: as above
Outline: as §1

[3] = system: foxtail, giant (giant foxtail, Setaria faberii); assay: as above; conditions: Preemergence
Outline: as §1

[4] = system: foxtail, green (green foxtail, Setaria viridis); assay: as above; conditions: Preemergence
Outline: as §1

[5] = system: horseweed (Conyza canadensis); assay: as above
Outline: as §1

[6] = system: johnsongrass (Sorghum halepense); assay: as above; conditions: Preemergence
Outline: as §1

kochia (Kochia scoparia) = assay: as above
Outline: as §1

[7] = system: lambsquarters (Chenopodium album); assay: as above; conditions: Preemergence
Outline: as §1

[8] = system: nutsedge, yellow (yellow nutsedge, Cyperus esculentus); assay: as above; conditions: Preemergence
Outline: as §1

[9] = system: pigweed, palmer (palmer pigweed, Amaranthus palmeri); assay: as above
Outline: as §1

[10] = system: ragweed (common ragweed, Ambrosia elatior); assay: as above
Outline: as §1

[11] = system: sandbur (southem sandbur, Cenchrus echinatus); assay: as above
Outline: as §1

soybean (Glycine max) = assay: as above
Outline: as §1

[12] = system: velvetleaf (Abutilon theophrasti); assay: as above; conditions: Preemergence
Outline: as §1

[13] = system: waterhemp (common waterhemp, Amaranthus rudis); assay: as above
Outline: as §1

[14] = system: waterhemp_RES1 (ALS & Triazine resistant common waterhemp, Amaranthus rudis); assay: Test E greenhouse herbicide test, postemergence
Outline: (§2)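 Postemergence spray of formulated test chemicals onto resistant waterhemp at 1- to 4-leaf stage (2–18 cm tall), grown in peat/vermiculite potting medium. Kept in greenhouse 14 to 21 d, then visually rated against untreated controls on a 0–100 scale (0 no effect, 100 complete control).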

[15] = system: waterhemp_RES2 (ALS & HPPD resistant common waterhemp, Amaranthus rudis); assay: Test E greenhouse herbicide test, postemergence
Outline: as §2

[16] = 62 g ai/ha, Postemergence, scale 0 to 100 (0 no effect, 100 complete control)
[17] = 62 g ai/ha, Preemergence, scale 0 to 100 (0 no effect, 100 complete control)
[18] = 125 g ai/ha, Postemergence, scale 0 to 100 (0 no effect, 100 complete control)
[19] = 125 g ai/ha, Preemergence, scale 0 to 100 (0 no effect, 100 complete control)
[20] = 250 g ai/ha, Postemergence, scale 0 to 100 (0 no effect, 100 complete control)
[21] = Postemergence, 31 g ai/ha, visual, scale 0 no effect to 100 complete control
[22] = Preemergence, 31 g ai/ha, scale 0 to 100, 0 no effect, 100 complete control
[23] = Preemergence, 250 g ai/ha, visual, scale 0 no effect to 100 complete control
[24] = 62 g ai/ha, scale 0 to 100 (0 no effect, 100 complete control)
[25] = 125 g ai/ha, scale 0 to 100 (0 no effect, 100 complete control)
[26] = 31 g ai/ha, scale 0 to 100, 0 no effect, 100 complete control
[27] = 250 g ai/ha, visual, scale 0 no effect to 100 complete control
[28] = 31 g ai/ha, visual, scale 0 no effect to 100 complete control
[29] = 250 g ai/ha, scale 0 to 100 (0 no effect, 100 complete control)

CCOC(=O)Oc1c(C)nn(C)c(=O)c1-c1c(C)sc2ccc(C)cc12 [Compound 82]
80: Plant response rating, Arrowleaf Sida [1, 18] | Plant response rating, Horseweed [5, 20] | Plant response rating, Ragweed [10, 17]
90: Plant response rating, Arrowleaf Sida [1, 20] | Plant response rating, Foxtail, Green [4, 27] | Plant response rating, Horseweed [5, 22] | Plant response rating, Kochia (kochia (Kochia scoparia); [17]) | Plant response rating, Kochia (kochia (Kochia scoparia); [21]) | Plant response rating, Pigweed, Palmer [9, 17] | Plant response rating, Pigweed, Palmer [9, 22] | Plant response rating, Ragweed [10, 16] | Plant response rating, Ragweed [10, 18] | Plant response rating, Ragweed [10, 20] | Plant response rating, Waterhemp [13, 17] | Plant response rating, Waterhemp [13, 20]
20: Plant response rating, Arrowleaf Sida [1, 22] | Plant response rating, Crabgrass, Brazil [2, 21] | Plant response rating, Foxtail, Green [4, 26] | Plant response rating, Kochia (kochia (Kochia scoparia); [22])
50: Plant response rating, Crabgrass, Brazil [2, 18] | Plant response rating, Crabgrass, Brazil [2, 20] | Plant response rating, Foxtail, Giant [3, 25] | Plant response rating, Johnsongrass [6, 27] | Plant response rating, Pigweed, Palmer [9, 21] | Plant response rating, Sandbur [11, 21] | Plant response rating, Waterhemp_RES2 [15, 28]
10: Plant response rating, Nutsedge, Yellow [8, 24] | Plant response rating, Soybean (soybean (Glycine max); [21])
35: Plant response rating, Johnsongrass [6, 25] | Plant response rating, Sandbur [11, 17] | Plant response rating, Soybean (soybean (Glycine max); [20])
75: Plant response rating, Crabgrass, Brazil [2, 22] | Plant response rating, Foxtail, Green [4, 25] | Plant response rating, Horseweed [5, 18] | Plant response rating, Lambsquarters [7, 24] | Plant response rating, Pigweed, Palmer [9, 18] | Plant response rating, Sandbur [11, 20] | Plant response rating, Sandbur [11, 23] | Plant response rating, Velvetleaf [12, 24]
30: Plant response rating, Crabgrass, Brazil [2, 16] | Plant response rating, Foxtail, Giant [3, 26]
85: Plant response rating, Arrowleaf Sida [1, 19] | Plant response rating, Ragweed [10, 21] | Plant response rating, Ragweed [10, 22] | Plant response rating, Waterhemp [13, 18] | Plant response rating, Waterhemp [13, 22] | Plant response rating, Waterhemp_RES1 [14, 25]
65: Plant response rating, Arrowleaf Sida [1, 21] | Plant response rating, Foxtail, Giant [3, 24] | Plant response rating, Nutsedge, Yellow [8, 27] | Plant response rating, Pigweed, Palmer [9, 20]
70: Plant response rating, Arrowleaf Sida [1, 16] | Plant response rating, Arrowleaf Sida [1, 17] | Plant response rating, Foxtail, Green [4, 24] | Plant response rating, Horseweed [5, 16] | Plant response rating, Sandbur [11, 18] | Plant response rating, Waterhemp [13, 21]
95: Plant response rating, Arrowleaf Sida [1, 23] | Plant response rating, Foxtail, Giant [3, 27] | Plant response rating, Kochia (kochia (Kochia scoparia); [18]) | Plant response rating, Velvetleaf [12, 25] | Plant response rating, Waterhemp_RES1 [14, 29]
0: Plant response rating, Johnsongrass [6, 26] | Plant response rating, Nutsedge, Yellow [8, 26] | Plant response rating, Sandbur [11, 22] | Plant response rating, Soybean (soybean (Glycine max); [17]) | Plant response rating, Soybean (soybean (Glycine max); [19]) | Plant response rating, Soybean (soybean (Glycine max); [22]) | Plant response rating, Velvetleaf [12, 26]
40: Plant response rating, Nutsedge, Yellow [8, 25] | Plant response rating, Soybean (soybean (Glycine max); [18])
100: Plant response rating, Crabgrass, Brazil [2, 17] | Plant response rating, Crabgrass, Brazil [2, 19] | Plant response rating, Crabgrass, Brazil [2, 23] | Plant response rating, Horseweed [5, 17] | Plant response rating, Horseweed [5, 19] | Plant response rating, Horseweed [5, 23] | Plant response rating, Kochia (kochia (Kochia scoparia); [19]) | Plant response rating, Kochia (kochia (Kochia scoparia); [23]) | Plant response rating, Lambsquarters [7, 25] | Plant response rating, Lambsquarters [7, 27] | Plant response rating, Pigweed, Palmer [9, 19] | Plant response rating, Pigweed, Palmer [9, 23] | Plant response rating, Ragweed [10, 19] | Plant response rating, Ragweed [10, 23] | Plant response rating, Waterhemp [13, 19] | Plant response rating, Waterhemp [13, 23]
60: Plant response rating, Horseweed [5, 21] | Plant response rating, Pigweed, Palmer [9, 16] | Plant response rating, Sandbur [11, 19] | Plant response rating, Waterhemp_RES1 [14, 28] | Plant response rating, Waterhemp_RES2 [15, 25] | Plant response rating, Waterhemp_RES2 [15, 29]
98: Plant response rating, Kochia (kochia (Kochia scoparia); [16]) | Plant response rating, Kochia (kochia (Kochia scoparia); [20]) | Plant response rating, Lambsquarters [7, 26] | Plant response rating, Velvetleaf [12, 27]
